Legend:
Canidae = conditions: oral, Dog Other, organ weight
Mus musculus = conditions: subchronic; duration: 90 days; oral; organ weight
Oryctolagus sp. = conditions: developmental; development

Structure (SMILES): C=CCSC(=O)n1c(N)c(-c2ccccc2C)c(=O)n1C(C)C [Fenpyrazamine]
- LC50 (Colinus virginianus; acute, oral, diet, mortality): > 954 mg/kg-day
- LD50 (Colinus virginianus; acute, oral, mortality): > 2000 mg/kg-day
- NOEC (Colinus virginianus; reproduction developmental): 82.9 mg/kg-day
- NOAEL (Canidae; chronic, duration: 1 years): 25 mg/kg-day
- NOAEL (Canidae; subchronic, duration: 90 days): 25 mg/kg-day
- LD50 (Rattus norvegicus; acute, oral, mortality): > 2000 mg/kg-day
- NOAEL (Rattus norvegicus; chronic, duration: 2 years, M, histopathology: nonneoplastic): 12.7 mg/kg-day
- NOAEL (Rattus norvegicus; reproduction developmental, F, organ weight): 20.3 mg/kg-day
- NOAEL (Rattus norvegicus; reproduction developmental, M, organ weight): 20 mg/kg-day
- NOEL (Rattus norvegicus; reproduction developmental, body weight): 28.5 mg/kg-day
- NOAEL (Mus musculus): 28 mg/kg-day
- NOAEL (Oryctolagus sp.): 30 mg/kg-day
